Starred links: 1 amine or outer side, 2 acyl side, 3 side chain; linkers in the order of their positions; H or OH if unused. Residues, ends and D or L forms follow the SMILES beside them. Groups on a side chain read outwards from the residue. *: point of attachment. C20 diacid = O=C(O)CCCCCCCCCCCCCCCCCCC(=O)*; γGlu = O=C(O)[C@H](CCC(=O)[*:2])N[*:1]; AEEA = NCCOCCOCC(=O)O
Assay: Telemetry in mice (blood pressure, heart frequency)
Type: in vivo
Method: Blood pressure and heart frequency were monitored in freely moving conscious mice by radiotelemetry (PA-C10, Data Sciences). Briefly, analgesia with metamizole (100 mg / kg sc) was performed. For implantation of the telemetry transmitter, the animals were anesthetized with isoflurane with 5% induction and 2% maintenance. The neck was opened in the area of the hyoid bone up to the sternum in the median line. A subcutaneous pocket for the transmitter housing was prepared. The dextra carotid artery was then bluntly exposed and clamped. The […] was pushed caudally into the carotid artery through an incision. The catheter was fixed with a monofilament prolene thread, which also closed the incision. The vessel was also ligated cranially, and the clamp was then removed. The transmitter housing was pushed subcutaneously into a prepared skin pocket on the side opposite the catheter. Finally, the skin wound was closed. Postoperatively, an antibiotic (Ursocyclin® 10, Serumwerk Bernburg AG, Germany; 400 mg/l drinking water for 10 days) and an analgesic (Rimadyl®, 4 mg/kg sc for 3 days) were administered postoperatively.
For arterial blood pressure measurements, the animals were kept in a 12h: 12h day night cycle in a suitable room for at least one day before the first measurement. Animals were administrated s.c once daily in the morning for 7 consecutive days with either 1) Placebo, 2) SEQ ID NO: 3, 10 nmol/kg, 3) SEQ ID NO: 3, 30 nmol/kg or 4) SEQ ID NO: 3, 100 nmol/kg in a cross over design with 2 animals per group (n = 6-8) per week and with 1 week washout between treatments. The telemetric measurement took place over 24 hours.
For statistical analysis, 5 hours means were calculated starting from one hour after dosing and one hour after lights off. All data were evaluated using a 2-way ANOVA with Dunnett's test.

[1] = conscious healthy mice, s.c. once daily 7 days, 10-100 nmol/kg
[2] = mice, 10 nmol/kg, 1. dark period
[3] = mice, 10 nmol/kg, 2. dark period
[4] = mice, 10 nmol/kg, 3. dark period
[5] = mice, 10 nmol/kg, 4. dark period
[6] = mice, 10 nmol/kg, 5. dark period
[7] = mice, 10 nmol/kg, 6. dark period
[8] = mice, 10 nmol/kg, Baseline dark period
[9] = mice, 30 nmol/kg, 1. dark period
[10] = mice, 30 nmol/kg, 2. dark period
[11] = mice, 30 nmol/kg, 3. dark period
[12] = mice, 30 nmol/kg, 4. dark period
[13] = mice, 30 nmol/kg, 5. dark period
[14] = mice, 30 nmol/kg, 6. dark period
[15] = mice, 30 nmol/kg, Baseline dark period
[16] = mice, 100 nmol/kg, 1. dark period
[17] = mice, 100 nmol/kg, 2. dark period
[18] = mice, 100 nmol/kg, 3. dark period
[19] = mice, 100 nmol/kg, 4. dark period
[20] = mice, 100 nmol/kg, 5. dark period
[21] = mice, 100 nmol/kg, 6. dark period
[22] = mice, 100 nmol/kg, Baseline dark period

CC[C@H](C)[C@H](N)C(=O)N[C@H](C(=O)N[C@@H](CC(C)C)C(=O)N[C@@H](CO)C(=O)N[C@@H](CC(C)C)C(=O)N[C@@H](CC(=O)O)C(=O)N[C@H](C(=O)N1CCC[C@H]1C(=O)N[C@H](C(=O)NCC(=O)N[C@@H](CC(C)C)C(=O)N[C@@H](CC(C)C)C(=O)N[C@@H](CCC(N)=O)C(=O)N[C@H](C(=O)N[C@@H](CC(C)C)C(=O)N[C@@H](CC(C)C)C(=O)N[C@@H](CCC(=O)O)C(=O)N[C@@H](CCC(N)=O)C(=O)N[C@@H](C)C(=O)N[C@@H](CCCNC(=N)N)C(=O)N[C@@H](C)C(=O)N[C@@H](CCCNC(=N)N)C(=O)N[C@@H](C)C(=O)N[C@@H](C)C(=O)N[C@@H](CCCNC(=N)N)C(=O)N[C@@H](CCC(=O)O)C(=O)N[C@@H](CCC(N)=O)C(=O)N[C@@H](C)C(=O)N[C@@H](CCCCNC(=O)COCCOCCNC(=O)COCCOCCNC(=O)CC[C@H](NC(=O)CC[C@H](NC(=O)CCCCCCCCCCCCCCCCCCC(=O)O)C(=O)O)C(=O)O)C(=O)N[C@H](C(=O)N[C@@H](CC(N)=O)C(=O)N[C@@H](C)C(=O)N[C@@H](CCC(=O)O)C(=O)N[C@H](C(=O)N[C@@H](CC(C)C)C(=O)N[C@@H](C)C(=O)N[C@@H](CCC(=O)O)C(=O)N[C@H](C(N)=O)C(C)C)[C@@H](C)CC)[C@@H](C)O)[C@@H](C)CC)[C@@H](C)CC)C(C)C)C(C)C [SEQ ID NO: 3] (H-IVLSLDVPIGLLQILLEQARARAAREQAK([AEEA-AEEA-γGlu-γGlu-C20 diacid])TNAEILAEV-NH2)
Heart rate [1]: permanent increase
mean arterial blood pressure [1]: transient and dose-dependent effect
Heart rate [2]: 617.82 ± 17.8 BPM
Mean arterial pressure [2]: 102.19 ± 4.0 mmHg
Heart rate (mice, 10 nmol/kg, 1. dose): 590.34 ± 26.4 BPM
Mean arterial pressure (mice, 10 nmol/kg, 1. dose): 97.23 ± 3.7 mmHg
Heart rate [3]: 576.21 ± 15.5 BPM
Mean arterial pressure [3]: 102.50 ± 2.9 mmHg
Heart rate (mice, 10 nmol/kg, 2. dose): 526.42 ± 18.4 BPM
Mean arterial pressure (mice, 10 nmol/kg, 2. dose): 89.86 ± 2.5 mmHg
Heart rate [4]: 570.38 ± 9.8 BPM
Mean arterial pressure [4]: 101.92 ± 1.5 mmHg
Heart rate (mice, 10 nmol/kg, 3. dose): 517.24 ± 12.1 BPM
Mean arterial pressure (mice, 10 nmol/kg, 3. dose): 89.07 ± 1.9 mmHg
Heart rate [5]: 557.65 ± 11.8 BPM
Mean arterial pressure [5]: 103.17 ± 1.7 mmHg
Heart rate (mice, 10 nmol/kg, 4. dose): 521.88 ± 17.1 BPM
Mean arterial pressure (mice, 10 nmol/kg, 4. dose): 96.25 ± 1.4 mmHg
Heart rate [6]: 548.23 ± 8.3 BPM
Mean arterial pressure [6]: 105.59 ± 1.5 mmHg
Heart rate (mice, 10 nmol/kg, 5. dose): 515.46 ± 3.8 BPM
Mean arterial pressure (mice, 10 nmol/kg, 5. dose): 93.27 ± 1.8 mmHg
Heart rate [7]: 571.18 ± 17.4 BPM
Mean arterial pressure [7]: 104.54 ± 1.8 mmHg
Heart rate (mice, 10 nmol/kg, 6. dose): 538.37 ± 13.6 BPM
Mean arterial pressure (mice, 10 nmol/kg, 6. dose): 99.01 ± 3.0 mmHg
Heart rate [8]: 573.24 ± 24.3 BPM
Mean arterial pressure [8]: 117.13 ± 6.7 mmHg
Heart rate [9]: 636.57 ± 28.2 BPM
Mean arterial pressure [9]: 97.14 ± 2.8 mmHg
Heart rate (mice, 30 nmol/kg, 1. dose): 637.60 ± 39.0 BPM
Mean arterial pressure (mice, 30 nmol/kg, 1. dose): 83.81 ± 3.9 mmHg
Heart rate [10]: 579.68 ± 23.9 BPM
Mean arterial pressure [10]: 102.00 ± 4.4 mmHg
Heart rate (mice, 30 nmol/kg, 2. dose): 534.13 ± 15.4 BPM
Mean arterial pressure (mice, 30 nmol/kg, 2. dose): 89.68 ± 5.3 mmHg
Heart rate [11]: 621.30 ± 9.5 BPM
Mean arterial pressure [11]: 106.02 ± 3.9 mmHg
Heart rate (mice, 30 nmol/kg, 3. dose): 524.21 ± 17.2 BPM
Mean arterial pressure (mice, 30 nmol/kg, 3. dose): 93.98 ± 4.5 mmHg
Heart rate [12]: 650.03 ± 9.0 BPM
Mean arterial pressure [12]: 106.67 ± 4.8 mmHg
Heart rate (mice, 30 nmol/kg, 4. dose): 576.95 ± 21.0 BPM
Mean arterial pressure (mice, 30 nmol/kg, 4. dose): 94.91 ± 5.0 mmHg
Heart rate [13]: 628.77 ± 14.9 BPM
Mean arterial pressure [13]: 107.74 ± 5.7 mmHg
Heart rate (mice, 30 nmol/kg, 5. dose): 552.59 ± 12.9 BPM
Mean arterial pressure (mice, 30 nmol/kg, 5. dose): 94.31 ± 5.2 mmHg
Heart rate [14]: 625.92 ± 11.6 BPM
Mean arterial pressure [14]: 109.48 ± 6.3 mmHg
Heart rate (mice, 30 nmol/kg, 6. dose): 558.58 ± 15.1 BPM
Mean arterial pressure (mice, 30 nmol/kg, 6. dose): 97.05 ± 6.6 mmHg
Heart rate [15]: 573.65 ± 26.2 BPM
Mean arterial pressure [15]: 111.32 ± 3.0 mmHg
Heart rate [16]: 593.28 ± 23.1 BPM
Mean arterial pressure [16]: 86.82 ± 2.2 mmHg
Heart rate (mice, 100 nmol/kg, 1. dose): 692.31 ± 7.0 BPM
Mean arterial pressure (mice, 100 nmol/kg, 1. dose): 83.22 ± 5.6 mmHg
Heart rate [17]: 517.97 ± 16.2 BPM
Mean arterial pressure [17]: 98.30 ± 4.8 mmHg
Heart rate (mice, 100 nmol/kg, 2. dose): 507.39 ± 8.1 BPM
Mean arterial pressure (mice, 100 nmol/kg, 2. dose): 89.63 ± 4.9 mmHg
Heart rate [18]: 591.77 ± 7.0 BPM
Mean arterial pressure [18]: 101.88 ± 5.1 mmHg
Heart rate (mice, 100 nmol/kg, 3. dose): 536.49 ± 10.4 BPM
Mean arterial pressure (mice, 100 nmol/kg, 3. dose): 92.77 ± 4.1 mmHg
Heart rate [19]: 606.21 ± 10.1 BPM
Mean arterial pressure [19]: 103.60 ± 5.3 mmHg
Heart rate (mice, 100 nmol/kg, 4. dose): 560.41 ± 16.0 BPM
Mean arterial pressure (mice, 100 nmol/kg, 4. dose): 94.17 ± 3.4 mmHg
Heart rate [20]: 619.17 ± 11.0 BPM
Mean arterial pressure [20]: 103.68 ± 4.4 mmHg
Heart rate (mice, 100 nmol/kg, 5. dose): 554.35 ± 15.3 BPM
Mean arterial pressure (mice, 100 nmol/kg, 5. dose): 91.26 ± 2.0 mmHg
Heart rate [21]: 612.05 ± 11.8 BPM
Mean arterial pressure [21]: 103.45 ± 3.1 mmHg
Heart rate (mice, 100 nmol/kg, 6. dose): 550.11 ± 16.2 BPM
Mean arterial pressure (mice, 100 nmol/kg, 6. dose): 88.76 ± 1.3 mmHg
Heart rate [22]: 581.49 ± 7.7 BPM
Mean arterial pressure [22]: 108.55 ± 1.2 mmHg

Source: patent EP4810052A2, “HCRHR2 SELECTIVE POLYPEPTIDES” (Gubra A/S, priority 2023, dated 2026)
